Data published in paper PMC7354229 (ACS infectious diseases, 2020).
Like-named read-outs stand apart in the source and are kept apart here.

What was measured:
Type in all cases: cell-based, Staphylococcus aureus
[1] = tested on: S. aureus JE2 transposon mutant SAUSA300_0647 (vraF); assay: MIC ratio WT/mutant
[2] = tested on: S. aureus JE2 transposon mutant SAUSA300_1037 (pheS); assay: MIC ratio WT/mutant
[3] = tested on: S. aureus JE2 transposon mutant SAUSA300_1465; assay: MIC ratio WT/mutant
[4] = tested on: S. aureus JE2 transposon mutant SAUSA300_1503
[5] = tested on: S. aureus JE2 transposon mutant SAUSA300_1962; assay: MIC ratio WT/mutant
[6] = tested on: S. aureus JE2 transposon mutant SAUSA300_0646 (graS); assay: MIC ratio WT/mutant
[7] = tested on: S. aureus JE2 transposon mutant SAUSA300_1255 (mprF); assay: MIC ratio WT/mutant
[8] = tested on: S. aureus JE2 transposon mutant SAUSA300_1867; assay: MIC ratio WT/mutant
[9] = tested on: S. aureus JE2 transposon mutant SAUSA300_0186 (argC)
[10] = tested on: S. aureus JE2 transposon mutant SAUSA300_0829 (lipA); assay: MIC ratio WT/mutant
[11] = tested on: S. aureus JE2 transposon mutant SAUSA300_0988 (trkA); assay: MIC ratio WT/mutant
[12] = tested on: S. aureus JE2 transposon mutant SAUSA300_1036
[13] = tested on: S. aureus JE2 transposon mutant SAUSA300_1336
[14] = tested on: S. aureus JE2 transposon mutant SAUSA300_1967
[15] = tested on: S. aureus JE2 transposon mutant SAUSA300_1898
[16] = tested on: S. aureus JE2 transposon mutants; conditions: peptide at 1.56 μM, propidium iodide
S. aureus = assay: Growth inhibition in 100% TSB

CC(=O)NC[C@H]1CN(c2ccc(N3CCOCC3)c(F)c2)C(=O)O1 [Linez, linezolid]
Fold decrease of MIC (MIC ratio WT / mutant) [1]: 6 fold | Fold decrease of MIC (MIC ratio WT / mutant) [2]: 2 fold | Fold decrease of MIC (MIC ratio WT / mutant) [3]: 6 fold | Fold decrease of MIC (MIC ratio WT / mutant) [4]: 2 fold | Fold decrease of MIC (MIC ratio WT / mutant) [5]: 2–4 fold

CN[C@H](CC(C)C)C(=O)N[C@H]1C(=O)N[C@@H](CC(N)=O)C(=O)N[C@H]2C(=O)N[C@H]3C(=O)N[C@H](C(=O)N[C@H](C(=O)O)c4cc(O)cc(O)c4-c4cc3ccc4O)[C@H](O)c3ccc(c(Cl)c3)Oc3cc2cc(c3O[C@@H]2O[C@H](CO)[C@@H](O)[C@H](O)[C@H]2O[C@H]2C[C@](C)(N)[C@H](O)[C@H](C)O2)Oc2ccc(cc2Cl)[C@H]1O [Van, vancomycin]
Fold decrease of MIC (MIC ratio WT / mutant) [6]: 2–4 fold | Fold decrease of MIC (MIC ratio WT / mutant) [1]: 2–4 fold | Fold decrease of MIC (MIC ratio WT / mutant) [2]: 4 fold | Fold decrease of MIC (MIC ratio WT / mutant) [7]: 2 fold | Fold decrease of MIC (MIC ratio WT / mutant) [3]: 4 fold | Fold decrease of MIC (MIC ratio WT / mutant) [5]: 2 fold | Fold decrease of MIC (MIC ratio WT / mutant) [8]: 2 fold

CN(C)c1cc(NC(=O)CNC(C)(C)C)c(O)c2c1C[C@H]1C[C@H]3[C@H](N(C)C)C(O)=C(C(N)=O)C(=O)[C@@]3(O)C(O)=C1C2=O [Tige, tigecycline]
Fold decrease of MIC (MIC ratio WT / mutant) [9]: 2 fold | Fold decrease of MIC (MIC ratio WT / mutant) [6]: 2 fold | Fold decrease of MIC (MIC ratio WT / mutant) [1]: 2 fold | Fold decrease of MIC (MIC ratio WT / mutant) [10]: 2 fold | Fold decrease of MIC (MIC ratio WT / mutant) [11]: 2 fold | Fold decrease of MIC (MIC ratio WT / mutant) [12]: 2 fold | Fold decrease of MIC (MIC ratio WT / mutant) [2]: 2–4 fold | Fold decrease of MIC (MIC ratio WT / mutant) [7]: 2 fold | Fold decrease of MIC (MIC ratio WT / mutant) [13]: 2 fold | Fold decrease of MIC (MIC ratio WT / mutant) [3]: 6 fold | Fold decrease of MIC (MIC ratio WT / mutant) [4]: 2 fold | Fold decrease of MIC (MIC ratio WT / mutant) [5]: 4 fold | Fold decrease of MIC (MIC ratio WT / mutant) [8]: 2 fold | Fold decrease of MIC (MIC ratio WT / mutant) [14]: 2 fold | Fold decrease of MIC (MIC ratio WT / mutant) [15]: 2 fold

NC[C@H]1O[C@H](O[C@H]2[C@H](O)[C@@H](O[C@H]3O[C@H](CO)[C@@H](O)[C@H](N)[C@H]3O)[C@H](N)C[C@@H]2N)[C@H](N)C[C@@H]1O [Tobra, tobramycin]
Fold decrease of MIC (MIC ratio WT / mutant) [1]: 2 fold | Fold decrease of MIC (MIC ratio WT / mutant) [2]: 4 fold | Fold decrease of MIC (MIC ratio WT / mutant) [7]: 4 fold | Fold decrease of MIC (MIC ratio WT / mutant) [3]: 4 fold | Fold decrease of MIC (MIC ratio WT / mutant) [5]: 2 fold

CC[C@H](C)[C@H](NC(=O)[C@H](CCCCN)NC(=O)[C@H](CCC(=O)O)NC(=O)[C@H](CCCCN)NC(=O)[C@H](CO)NC(=O)[C@H](CCCCN)NC(=O)[C@H](CCCNC(=N)N)NC(=O)[C@H](Cc1ccccc1)NC(=O)[C@H](Cc1ccccc1)NC(=O)[C@H](CC(=O)O)NC(=O)CNC(=O)[C@H](CC(C)C)NC(=O)[C@@H](N)CC(C)C)C(=O)NCC(=O)N[C@@H](CCCCN)C(=O)N[C@@H](CCC(=O)O)C(=O)N[C@@H](Cc1ccccc1)C(=O)N[C@@H](CCCCN)C(=O)N[C@@H](CCCNC(=N)N)C(=O)N[C@H](C(=O)N[C@H](C(=O)N[C@@H](CCC(N)=O)C(=O)N[C@@H](CCCNC(=N)N)C(=O)N[C@H](C(=O)N[C@@H](CCCCN)C(=O)N[C@@H](CC(=O)O)C(=O)N[C@@H](Cc1ccccc1)C(=O)N[C@@H](CC(C)C)C(=O)N[C@@H](CCCNC(=N)N)C(=O)N[C@@H](CC(N)=O)C(=O)N[C@@H](CC(C)C)C(=O)N[C@H](C(=O)N1CCC[C@H]1C(=O)N[C@@H](CCCNC(=N)N)C(=O)N[C@H](C(=O)N[C@@H](CCC(=O)O)C(=O)N[C@@H](CO)C(=O)O)[C@@H](C)O)C(C)C)[C@@H](C)CC)C(C)C)[C@@H](C)CC [LL-37]
Membrane permeability of mutant relative to JE2 ([16]; mutant SAUSA300_0646): less permeable | Membrane permeability of mutant relative to JE2 ([16]; mutants SAUSA300_0186, 0829, 1089, 1097, 1220, 1228, 1515, 1865, 1867, 1962 and 1967): essentially no differences | Membrane permeability of mutant relative to JE2 ([16]; mutants SAUSA300_0645, 0647 and 1503): slightly more permeable | Membrane permeability of mutant relative to JE2 ([16]; mutants SAUSA300_1036, 1037 and 1255): clearly more permeable than JE2 | Inhibition of S. aureus growth (S. aureus): did not inhibit
